# Test results published in patent US11622974B2, “Prebiotic composition and its use” (CP KELCO U.S., INC., priority 2019, dated 2023).
# How the values were obtained:
# Bifidobacterium = assay: i-screen in vitro fermentation of fecal microbiota pool: Bifidobacterium growth; format: cell-based; settings: second i-screen, relative to untreated control (1.0)
# Description: (§1) Samples containing 8 mg/mL (0.8% w/v) of SPS or SOS were diluted by a factor of two to provide samples containing 4 mg/mL (0.4% w/v) of SPS or SOS. The effect of Sample Nos. 1-12 at a concentration of 4 mg/mL on a panel of over twenty-five gut microbiota was assessed after 24 h of fermentation using an in vitro fermentation screening platform (“i-screen”), as described by Fehlbaum (2018). Specifically, a standard fecal microbiota pool derived from 5-6 healthy adults (health based on exclusion criteria) was used that was pre-cultured overnight from a frozen stock. […] A number of sphingan samples and comparative samples—plant extracts (e.g., pectins, pectin oligosaccharides, and carrageenans) and biogums (e.g., xanthan and xanthan oligosaccharides)) were analyzed at a concentration of about 4 mg/mL, which corresponds to a dose of about 4 g/day. […]
# (§2) Shifts in microbiota composition were determined by next generation sequencing, which recognizes bacteria at the genus level and in many cases (but not all) at the species level. To have a uniform distribution of samples in the sequencing pool total bacterial load was established by a quantitative Polymerase Chain Reaction (“PCR”) using a universal primer-probe set. […] Next, amplicons were gel-purified, quantified and pooled. […]
# (§3) The standard controls were carried out in triplicate. […] The effect was determined relative to an untreated control. […]
# Blautia = assay: i-screen in vitro fermentation of fecal microbiota pool: Blautia growth; format: cell-based; settings: second i-screen, pool H1, relative to untreated control (1.0)
# Description: as §1, §2, §3
# Faecalibacterium = assay: i-screen in vitro fermentation of fecal microbiota pool: Faecalibacterium growth; format: cell-based; settings: second i-screen, pool H1, relative to untreated control (1.0)
# Description: as §1, §2, §3
# Parabacteroides = assay: i-screen in vitro fermentation of fecal microbiota pool: Parabacteroides growth; format: cell-based; settings: second i-screen, pool H1, relative to untreated control (1.0)
# Description: as §1, §2, §3
# [1] = test system: Lachnospiraceae unclassified; assay: i-screen in vitro fermentation: Lachnospiraceae unclassified growth; format: cell-based; settings: second i-screen, relative to untreated control (1.0)
# Description: as §1, §2, §3
# Clostridium XlVa = assay: i-screen in vitro fermentation: Clostridium XlVa growth; format: cell-based; settings: second i-screen, relative to untreated control (1.0)
# Description: The effect of Sample Nos. 1-12 at a concentration of 4 mg/mL on a panel of over twenty-five gut microbiota was assessed after 24 h of fermentation using an in vitro fermentation screening platform (“i-screen”), as described by Fehlbaum (2018). Specifically, a standard fecal microbiota pool derived from 5-6 healthy adults (health based on exclusion criteria) was used that was pre-cultured overnight from a frozen stock. This was followed by dilution in microtiter plates in which the samples were added and subsequently anaerobically incubated for 24 h at 37° C. After incubation, culture samples were harvested and processed for further analysis. […] A number of sphingan samples and comparative samples—plant extracts (e.g., pectins, pectin oligosaccharides, and carrageenans) and biogums (e.g., xanthan and xanthan oligosaccharides)) were analyzed at a concentration of about 4 mg/mL, which corresponds to a dose of about 4 g/day.
# Coprococcus = assay: i-screen in vitro fermentation: Coprococcus growth; format: cell-based; settings: second i-screen, relative to untreated control (1.0)
# Description: as §1, §2, §3
# Phascolarctobacterium = assay: i-screen in vitro fermentation: Phascolarctobacterium growth; format: cell-based; settings: second i-screen, relative to untreated control (1.0)
# Description: as §1, §2, §3
# Butyricicoccus = assay: i-screen in vitro fermentation: Butyricicoccus growth; format: cell-based; settings: second i-screen, relative to untreated control (1.0)
# Description: as §1, §2, §3
# NF-κB = assay: Caco-2/THP1-Blue co-culture: NF-κB activity after LPS; format: cell-based, human; settings: control tests, versus LPS+
# Description: (§4) Samples collected from the SHIME experiment described above were used to evaluate in vitro the effect of the fermented products on intestinal epithelial barrier function and immune markers. These include samples from the proximal and distal colon reactors of three different donors, collected at the end of the control and treatment periods.
# THP1-Blue™ (InvivoGen) cells were maintained in Roswell Park Memorial Institute (RPMI) 1640 medium containing glucose and glutamine, supplemented with HEPES, sodium pyruvate and 10% (v/v) H1-FBS. THP1-Blue™ are THP1 human monocytes stably transfected with a reporter construct expressing a secreted alkaline phosphatase (SEAP) gene under the control of a promoter inducible by the transcription factor nuclear factor kappa B (NF-κB). Upon TLR activation (e.g., by lipopolysaccharide (LPS); isolated from Gram-negative bacteria), NF-κB becomes activated and induces the expression and secretion of SEAP. SEAP activity can then be measured in the supernatants by using the QUANTI-Blue reagent (InvivoGen). […]
# Briefly, the apical compartment (containing the Caco-2 cells) was filled with sterile-filtered (0.22 μm) colonic SHIME suspensions or with different concentrations of live bacteria. […] Cells were treated for 24 h, after which the TEER was measured (=24 h time point). […]
# IL-1β = assay: Caco-2/THP1-Blue co-culture: IL-1β secretion after LPS; format: cell-based, human; settings: control tests, versus LPS+
# Description: as §4
# (§5) Briefly, the apical compartment (containing the Caco-2 cells) was filled with sterile-filtered (0.22 μm) colonic SHIME suspensions or with different concentrations of live bacteria. Cells were also treated apically with sodium butyrate (NaB) (Sigma-Aldrich) as positive control. The basolateral compartment (containing the THP1-Blue™ cells) was filled with Caco-2 complete medium. Cells were also exposed to Caco-2 complete medium in both chambers as control. Cells were treated for 24 h, after which the TEER was measured (=24 h time point). After subtracting the TEER of the empty insert, all 24 h values were normalized to its own 0 h value (to account for the differences in initial TEER of the different inserts) and are presented as percentage of initial value. Then, the basolateral supernatant was discarded, and cells were stimulated at the basolateral side with Caco-2 complete medium containing ultrapure LPS (Escherichia coli K12, InvivoGen). […]
# [2] = test system: Caco-2/THP1-Blue™ co-cultures; assay: Caco-2/THP1-Blue co-culture: transepithelial electrical resistance (TEER); format: cell-based, human; settings: control tests, apical treatment 24 h, versus complete medium
# Description: To mimic the interface between host and gut microbiome, several in vitro models have been developed in the past years which include the use of intestinal epithelial-like cells and immune cells of human origin. The model used herein was a co-culture model of intestinal epithelial-like cells (Caco-2 cells) and human monocytes/macrophages (THP1 cells). (See FIG. 14; see also Possemiers (2013) Satsu (2006).) Caco-2, when seeded on suitable supports, spontaneously differentiate into mature enterocyte-like cells, characterized by polarization, presence of villi, formation of domes, presence of tight junctions and vectorial transport and expression of apical brush-border enzymes (reviewed by Sambuy (2005)). THP1 monocytes, isolated from a human patient with acute leukemia, differentiate into macrophage-like cells upon phorbol 12-myristate 13-acetate (PMA) treatment. […] The ‘tightness’ of these junctions can be measured as transepithelial electrical resistance (TEER), with a high TEER corresponding to a tighter barrier. Upon loss of barrier function, the paracellular transport (in-between cells) of fluids increases, which can be measured as a reduction of the TEER. […] This is possibly due to cytokine-mediated disruption of tight junctions and can be measured as a decrease in TEER. […]
# IL-6 = assay: Caco-2/THP1-Blue co-culture: IL-6 secretion after LPS; format: cell-based, human; settings: control tests, versus LPS+
# Description: as §4, §5
# IL-10 = assay: Caco-2/THP1-Blue co-culture: IL-10 secretion after LPS; format: cell-based, human; settings: control tests, versus LPS+
# Description: as §4, §5
# TNF-α = assay: Caco-2/THP1-Blue co-culture: TNF-α secretion after LPS; format: cell-based, human; settings: control tests, versus LPS+
# Description: as §4, §5
# IL-8 = assay: Caco-2/THP1-Blue co-culture: IL-8 secretion after LPS; format: cell-based, human; settings: control tests, versus LPS+
# Description: as §4, §5
# CXCL10 = assay: Caco-2/THP1-Blue co-culture: CXCL10 secretion after LPS; format: cell-based, human; settings: control tests, versus LPS+
# Description: as §4, §5
# MCP-1 = assay: Caco-2/THP1-Blue co-culture: MCP-1 secretion after LPS; format: cell-based, human; settings: control tests, versus LPS+
# Description: as §4, §5
Compound,Bifid. growth (Bifidobacterium),Blaut. growth (Blautia),Faecal. growth (Faecalibacterium),Para. growth (Parabacteroides),Lachn. U. growth [1],ClX1Va growth (Clostridium XlVa),Copro. growth (Coprococcus),Phasc. growth (Phascolarctobacterium),Butyr. growth (Butyricicoccus),LPS-induced NF-κB transcriptional activity (NF-κB),LPS-induced IL-1β expression (IL-1β),TEER of the Caco-2 monolayer [2],LPS-induced IL-6 secretion (IL-6),LPS-induced IL-10 secretion (IL-10),LPS-induced TNF-α (TNF-α),LPS-induced IL-8 (IL-8),LPS-induced CXCL10 (CXCL10),LPS-induced MCP-1 (MCP-1)
"CC1(C)S[C@@H]2[C@H](NC(=O)[C@H](N)c3ccc(O)cc3)C(=O)N2[C@H]1C(=O)O [CS20, Amoxicillin]",0.24,0.23,0.37,12.10,0.04,0.03,0.04,0.08,0.00,–,–,–,–,–,–,–,–,–
"C[C@]12CCC(=O)C=C1CC[C@@H]1[C@@H]2[C@@H](O)C[C@@]2(C)[C@H]1CC[C@]2(O)C(=O)CO [HC, hydrocortisone]",–,–,–,–,–,–,–,–,–,inhibiting,did not reduce,–,–,–,–,–,–,–
"CCCC(=O)[O-].[Na+] [NaB, sodium butyrate]",–,–,–,–,–,–,–,–,–,increased,did not reduce,maintain the TEER,selectively increased,selectively increased,selectively inhibited,selectively inhibited,selectively inhibited,selectively inhibited
